Laboratory results: ChEMBL document CHEMBL4507275, “Data for DCP probe BI-2545” (2021)

Experiments:
[1] = target: Transient receptor potential cation channel subfamily M member 6 (Homo sapiens) (UniProt Q9BX84); conditions: Compound concentration 1000.0 nM
[2] = target: Casein kinase I isoform gamma-2 (Homo sapiens) (UniProt P78368); conditions: Compound concentration 1000.0 nM
[3] = target: Serine/threonine-protein kinase SBK1 (Homo sapiens) (UniProt Q52WX2); conditions: Compound concentration 1000.0 nM
[4] = target: Ankyrin repeat and protein kinase domain-containing protein 1 (Homo sapiens) (UniProt Q8NFD2); conditions: Compound concentration 1000.0 nM
[5] = target: Alpha-1B adrenergic receptor (Homo sapiens) (UniProt P35368); conditions: Compound concentration 10.0 uM
[6] = target: Serine/threonine-protein kinase PRP4 homolog (Homo sapiens) (UniProt Q13523); conditions: Compound concentration 1000.0 nM
[7] = target: Homeodomain-interacting protein kinase 1 (Homo sapiens) (UniProt Q86Z02); conditions: Compound concentration 1000.0 nM
[8] = target: Mitogen-activated protein kinase 7 (Homo sapiens) (UniProt Q13164); conditions: Compound concentration 1000.0 nM
[9] = target: Phosphatidylinositol 4,5-bisphosphate 3-kinase catalytic subunit beta isoform (Homo sapiens) (UniProt P42338); conditions: Compound concentration 1000.0 nM
[10] = target: Mitogen-activated protein kinase 10 (Homo sapiens) (UniProt P53779); conditions: Compound concentration 1000.0 nM
[11] = target: Serine/threonine-protein kinase DCLK3 (Homo sapiens) (UniProt Q9C098); conditions: Compound concentration 1000.0 nM
[12] = target: Serine/threonine-protein kinase WNK1 (Homo sapiens) (UniProt Q9H4A3); conditions: Compound concentration 1000.0 nM
[13] = system: Epidermal growth factor receptor (Homo sapiens), P00533 [UNDEFINED MUTATION]; conditions: Compound concentration 1000.0 nM
[14] = target: Serine/threonine-protein kinase TAO3 (Homo sapiens) (UniProt Q9H2K8); conditions: Compound concentration 1000.0 nM
[15] = target: Dual specificity mitogen-activated protein kinase kinase 7 (Homo sapiens) (UniProt O14733); conditions: Compound concentration 1000.0 nM
[16] = target: Serine/threonine-protein kinase RIO2 (Homo sapiens) (UniProt Q9BVS4); conditions: Compound concentration 1000.0 nM
[17] = target: Receptor tyrosine-protein kinase erbB-2 (Homo sapiens) (UniProt P04626); conditions: Compound concentration 1000.0 nM
[18] = target: Protein-tyrosine kinase 2-beta (Homo sapiens) (UniProt Q14289); conditions: Compound concentration 1000.0 nM
[19] = target: Ephrin type-B receptor 4 (Homo sapiens) (UniProt P54760); conditions: Compound concentration 1000.0 nM
[20] = target: Aurora kinase C (Homo sapiens) (UniProt Q9UQB9); conditions: Compound concentration 1000.0 nM
[21] = target: Non-receptor tyrosine-protein kinase TNK1 (Homo sapiens) (UniProt Q13470); conditions: Compound concentration 1000.0 nM
[22] = target: Rho-associated protein kinase 1 (Homo sapiens) (UniProt Q13464); conditions: Compound concentration 1000.0 nM
[23] = target: Beta-1 adrenergic receptor (Homo sapiens) (UniProt P08588); conditions: Compound concentration 10.0 uM
[24] = target: Cyclin-dependent kinase 3 (Homo sapiens) (UniProt Q00526); conditions: Compound concentration 1000.0 nM
[25] = target: Casein kinase II subunit alpha (Homo sapiens) (UniProt P68400); conditions: Compound concentration 1000.0 nM
[26] = target: Microtubule-associated serine/threonine-protein kinase 1 (Homo sapiens) (UniProt Q9Y2H9); conditions: Compound concentration 1000.0 nM
[27] = target: Mitogen-activated protein kinase kinase kinase 2 (Homo sapiens) (UniProt Q9Y2U5); conditions: Compound concentration 1000.0 nM
[28] = target: Dual specificity protein kinase CLK2 (Homo sapiens) (UniProt P49760); conditions: Compound concentration 1000.0 nM
[29] = system: Mast/stem cell growth factor receptor Kit (Homo sapiens), P10721 [L576P]; conditions: Compound concentration 1000.0 nM
[30] = target: T1, Muscarinic acetylcholine receptor M2 (Homo sapiens) (UniProt P08172); conditions: Compound concentration 10.0 uM
T1 sequence (whole entry): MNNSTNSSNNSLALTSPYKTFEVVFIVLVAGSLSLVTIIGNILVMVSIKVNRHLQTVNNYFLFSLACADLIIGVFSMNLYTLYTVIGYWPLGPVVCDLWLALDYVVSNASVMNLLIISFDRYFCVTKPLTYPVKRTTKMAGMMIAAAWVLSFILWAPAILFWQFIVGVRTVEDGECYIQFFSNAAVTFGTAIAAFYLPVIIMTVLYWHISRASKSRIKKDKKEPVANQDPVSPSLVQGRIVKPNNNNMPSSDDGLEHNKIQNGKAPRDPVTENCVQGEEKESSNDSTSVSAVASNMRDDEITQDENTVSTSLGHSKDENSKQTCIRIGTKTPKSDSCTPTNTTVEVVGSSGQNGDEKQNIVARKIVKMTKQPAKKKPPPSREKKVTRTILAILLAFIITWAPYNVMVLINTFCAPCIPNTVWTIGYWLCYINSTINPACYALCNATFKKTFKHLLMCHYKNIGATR

[31] = target: Serine/threonine-protein kinase SIK2 (Homo sapiens) (UniProt Q9H0K1); conditions: Compound concentration 1000.0 nM
[32] = target: Serine/threonine-protein kinase Nek5 (Homo sapiens) (UniProt Q6P3R8); conditions: Compound concentration 1000.0 nM
[33] = target: Cyclin-dependent kinase 2 homolog (Plasmodium falciparum (isolate 3D7)) (UniProt P61075); conditions: Compound concentration 1000.0 nM
[34] = target: Ephrin type-A receptor 2 (Homo sapiens) (UniProt P29317); conditions: Compound concentration 1000.0 nM
[35] = target: Calcium/calmodulin-dependent protein kinase type IV (Homo sapiens) (UniProt Q16566); conditions: Compound concentration 1000.0 nM
[36] = target: cAMP-dependent protein kinase catalytic subunit PRKX (Homo sapiens) (UniProt P51817); conditions: Compound concentration 1000.0 nM
[37] = target: Activin receptor type-2A (Homo sapiens) (UniProt P27037); conditions: Compound concentration 1000.0 nM
[38] = system: Proto-oncogene tyrosine-protein kinase receptor Ret (Homo sapiens), P07949 [M918T]; conditions: Compound concentration 1000.0 nM

Chain of Mast/stem cell growth factor receptor Kit (Homo sapiens), P10721 [L576P] (P10721 whole entry L576P): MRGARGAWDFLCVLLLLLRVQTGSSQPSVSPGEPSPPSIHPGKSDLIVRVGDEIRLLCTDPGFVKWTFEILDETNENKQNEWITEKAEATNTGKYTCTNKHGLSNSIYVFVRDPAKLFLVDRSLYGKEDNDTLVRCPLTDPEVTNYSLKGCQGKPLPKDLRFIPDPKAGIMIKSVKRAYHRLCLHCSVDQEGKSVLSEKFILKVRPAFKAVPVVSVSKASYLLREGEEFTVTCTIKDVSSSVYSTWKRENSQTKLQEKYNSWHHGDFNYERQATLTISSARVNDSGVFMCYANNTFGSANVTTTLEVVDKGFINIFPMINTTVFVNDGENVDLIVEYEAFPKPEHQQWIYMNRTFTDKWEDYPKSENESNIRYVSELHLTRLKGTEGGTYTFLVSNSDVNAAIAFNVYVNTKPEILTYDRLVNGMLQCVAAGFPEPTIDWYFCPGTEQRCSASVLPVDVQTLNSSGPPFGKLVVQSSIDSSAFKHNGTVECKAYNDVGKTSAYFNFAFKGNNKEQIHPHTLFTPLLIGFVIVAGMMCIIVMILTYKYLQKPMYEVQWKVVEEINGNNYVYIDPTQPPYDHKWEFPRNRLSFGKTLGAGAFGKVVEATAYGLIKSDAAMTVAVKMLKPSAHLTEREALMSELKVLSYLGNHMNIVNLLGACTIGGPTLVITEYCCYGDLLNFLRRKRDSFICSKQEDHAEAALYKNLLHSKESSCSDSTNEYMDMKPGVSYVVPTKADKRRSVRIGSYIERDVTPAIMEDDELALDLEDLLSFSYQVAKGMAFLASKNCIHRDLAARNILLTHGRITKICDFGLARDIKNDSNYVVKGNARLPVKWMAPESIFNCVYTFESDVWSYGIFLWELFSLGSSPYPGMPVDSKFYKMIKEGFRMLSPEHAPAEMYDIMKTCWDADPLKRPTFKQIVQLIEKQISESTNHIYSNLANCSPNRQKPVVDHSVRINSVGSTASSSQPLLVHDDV
Chain of Serine/threonine-protein kinase WNK1 (Homo sapiens) (Q9H4A3 whole entry, looked up): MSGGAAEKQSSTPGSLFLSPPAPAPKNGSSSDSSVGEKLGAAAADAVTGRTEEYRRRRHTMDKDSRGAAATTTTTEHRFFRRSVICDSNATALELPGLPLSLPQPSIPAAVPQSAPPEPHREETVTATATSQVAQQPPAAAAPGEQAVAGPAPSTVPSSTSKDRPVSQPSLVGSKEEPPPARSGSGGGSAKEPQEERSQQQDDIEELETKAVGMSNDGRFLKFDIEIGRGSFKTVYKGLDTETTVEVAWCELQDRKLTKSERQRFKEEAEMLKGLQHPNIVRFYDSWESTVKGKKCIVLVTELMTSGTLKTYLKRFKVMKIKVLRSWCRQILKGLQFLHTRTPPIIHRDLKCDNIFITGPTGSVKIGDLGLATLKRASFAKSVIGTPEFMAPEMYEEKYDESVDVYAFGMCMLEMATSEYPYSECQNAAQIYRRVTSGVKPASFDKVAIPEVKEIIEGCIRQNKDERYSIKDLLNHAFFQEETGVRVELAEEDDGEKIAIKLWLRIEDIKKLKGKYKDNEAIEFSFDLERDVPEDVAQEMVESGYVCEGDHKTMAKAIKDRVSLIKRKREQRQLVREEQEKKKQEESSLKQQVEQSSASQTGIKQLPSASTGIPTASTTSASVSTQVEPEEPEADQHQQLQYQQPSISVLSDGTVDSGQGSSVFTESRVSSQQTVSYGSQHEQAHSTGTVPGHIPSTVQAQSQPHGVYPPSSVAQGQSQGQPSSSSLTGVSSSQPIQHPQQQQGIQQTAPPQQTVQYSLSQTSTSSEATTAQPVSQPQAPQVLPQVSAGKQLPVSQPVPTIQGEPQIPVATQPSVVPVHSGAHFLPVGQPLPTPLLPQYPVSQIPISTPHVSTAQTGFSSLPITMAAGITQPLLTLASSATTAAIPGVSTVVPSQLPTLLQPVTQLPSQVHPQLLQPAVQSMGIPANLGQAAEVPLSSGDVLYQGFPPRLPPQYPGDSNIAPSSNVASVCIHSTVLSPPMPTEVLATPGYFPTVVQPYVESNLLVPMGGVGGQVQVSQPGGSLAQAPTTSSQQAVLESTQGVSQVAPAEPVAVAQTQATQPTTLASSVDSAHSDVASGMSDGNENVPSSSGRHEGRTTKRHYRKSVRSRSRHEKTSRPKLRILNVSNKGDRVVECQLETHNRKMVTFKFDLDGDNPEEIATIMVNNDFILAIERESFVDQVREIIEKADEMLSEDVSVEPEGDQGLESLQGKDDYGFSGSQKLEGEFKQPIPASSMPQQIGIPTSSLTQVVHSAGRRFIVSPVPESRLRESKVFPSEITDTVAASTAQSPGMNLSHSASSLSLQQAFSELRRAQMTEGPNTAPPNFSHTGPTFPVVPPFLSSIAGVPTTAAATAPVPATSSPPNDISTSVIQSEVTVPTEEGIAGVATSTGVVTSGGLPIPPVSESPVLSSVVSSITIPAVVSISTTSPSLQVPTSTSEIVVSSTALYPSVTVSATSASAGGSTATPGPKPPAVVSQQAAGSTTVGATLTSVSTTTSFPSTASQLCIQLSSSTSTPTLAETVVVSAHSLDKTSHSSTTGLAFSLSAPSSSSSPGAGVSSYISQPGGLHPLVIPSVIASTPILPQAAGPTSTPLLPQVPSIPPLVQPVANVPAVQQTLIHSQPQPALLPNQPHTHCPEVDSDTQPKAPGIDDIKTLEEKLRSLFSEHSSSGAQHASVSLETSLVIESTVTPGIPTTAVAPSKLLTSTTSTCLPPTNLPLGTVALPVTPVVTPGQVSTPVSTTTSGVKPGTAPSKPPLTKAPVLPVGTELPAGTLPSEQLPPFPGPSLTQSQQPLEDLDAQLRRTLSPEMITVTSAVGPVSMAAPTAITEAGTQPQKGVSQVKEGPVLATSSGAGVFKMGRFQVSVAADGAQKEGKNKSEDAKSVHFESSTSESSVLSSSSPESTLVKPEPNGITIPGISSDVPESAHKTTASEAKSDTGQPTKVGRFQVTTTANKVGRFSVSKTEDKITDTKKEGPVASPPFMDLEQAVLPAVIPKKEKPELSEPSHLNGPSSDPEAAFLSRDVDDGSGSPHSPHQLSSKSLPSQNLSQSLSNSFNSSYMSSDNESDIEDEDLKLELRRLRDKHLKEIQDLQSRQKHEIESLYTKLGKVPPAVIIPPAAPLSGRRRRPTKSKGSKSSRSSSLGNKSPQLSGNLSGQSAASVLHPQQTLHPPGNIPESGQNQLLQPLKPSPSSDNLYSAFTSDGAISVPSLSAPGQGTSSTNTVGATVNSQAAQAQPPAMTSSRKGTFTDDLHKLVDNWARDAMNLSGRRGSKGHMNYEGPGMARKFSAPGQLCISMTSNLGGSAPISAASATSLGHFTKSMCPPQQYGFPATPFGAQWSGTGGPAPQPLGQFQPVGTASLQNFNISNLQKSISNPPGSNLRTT
Chain of Serine/threonine-protein kinase SBK1 (Homo sapiens) (Q52WX2 whole entry, the tested form may be a part): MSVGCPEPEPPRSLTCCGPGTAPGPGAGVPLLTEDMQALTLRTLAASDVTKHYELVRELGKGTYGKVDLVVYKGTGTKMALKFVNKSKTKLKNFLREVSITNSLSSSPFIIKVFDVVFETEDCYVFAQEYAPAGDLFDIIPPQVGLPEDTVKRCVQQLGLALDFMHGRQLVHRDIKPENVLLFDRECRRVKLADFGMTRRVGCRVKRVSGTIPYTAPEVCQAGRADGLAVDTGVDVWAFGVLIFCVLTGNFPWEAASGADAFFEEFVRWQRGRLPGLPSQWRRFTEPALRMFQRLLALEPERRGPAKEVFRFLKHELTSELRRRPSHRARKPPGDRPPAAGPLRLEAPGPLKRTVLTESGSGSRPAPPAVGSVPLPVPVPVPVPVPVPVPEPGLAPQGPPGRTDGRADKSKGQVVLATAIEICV
Chain of Epidermal growth factor receptor (Homo sapiens), P00533 [UNDEFINED MUTATION] (P00533 whole entry, looked up, change not shown): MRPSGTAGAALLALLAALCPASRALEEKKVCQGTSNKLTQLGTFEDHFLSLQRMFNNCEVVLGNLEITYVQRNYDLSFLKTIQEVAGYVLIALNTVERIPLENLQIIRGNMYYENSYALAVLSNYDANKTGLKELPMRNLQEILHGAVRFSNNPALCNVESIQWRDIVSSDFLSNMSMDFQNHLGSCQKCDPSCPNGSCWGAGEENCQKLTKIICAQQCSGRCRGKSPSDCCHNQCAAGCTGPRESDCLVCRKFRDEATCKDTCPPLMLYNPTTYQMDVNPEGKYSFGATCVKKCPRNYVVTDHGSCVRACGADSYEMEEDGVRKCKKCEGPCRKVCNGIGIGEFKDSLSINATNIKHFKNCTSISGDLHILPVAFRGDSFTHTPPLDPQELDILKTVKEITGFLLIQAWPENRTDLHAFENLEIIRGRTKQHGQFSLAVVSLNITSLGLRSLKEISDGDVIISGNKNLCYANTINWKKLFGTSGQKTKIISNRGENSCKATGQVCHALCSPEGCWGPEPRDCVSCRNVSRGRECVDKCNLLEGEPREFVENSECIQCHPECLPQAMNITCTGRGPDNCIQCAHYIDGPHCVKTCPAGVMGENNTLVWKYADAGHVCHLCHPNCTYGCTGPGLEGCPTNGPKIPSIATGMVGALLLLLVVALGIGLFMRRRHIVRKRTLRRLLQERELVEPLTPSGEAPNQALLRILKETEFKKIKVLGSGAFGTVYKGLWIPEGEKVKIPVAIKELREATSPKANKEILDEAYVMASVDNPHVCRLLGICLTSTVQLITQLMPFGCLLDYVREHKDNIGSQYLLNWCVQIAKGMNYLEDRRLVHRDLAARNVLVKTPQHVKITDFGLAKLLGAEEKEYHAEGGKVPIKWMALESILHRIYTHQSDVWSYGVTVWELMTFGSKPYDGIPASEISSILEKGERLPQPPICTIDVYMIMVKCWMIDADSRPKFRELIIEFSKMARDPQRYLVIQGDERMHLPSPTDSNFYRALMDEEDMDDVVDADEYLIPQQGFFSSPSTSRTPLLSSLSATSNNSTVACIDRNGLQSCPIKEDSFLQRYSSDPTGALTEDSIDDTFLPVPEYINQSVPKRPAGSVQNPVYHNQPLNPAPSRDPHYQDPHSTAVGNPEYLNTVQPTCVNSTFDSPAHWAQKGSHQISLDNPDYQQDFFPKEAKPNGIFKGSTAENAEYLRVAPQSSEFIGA

O=C(NC[C@@H]1[C@H]2CN(C(=O)OCc3cc(C(F)(F)F)cc(C(F)(F)F)c3)C[C@@H]12)c1ccc2[nH]nnc2c1 [BI 2545]
inactive: residual activity [1] 92% | residual activity [2] 100% | residual activity [3] 97% | residual activity [4] 73% | inhibition [5] 33.4% | residual activity [6] 100% | residual activity [7] 85% | residual activity [8] 100% | residual activity [9] 100% | residual activity [10] 90% | residual activity [11] 100% | residual activity [12] 90% | residual activity [13] 100% | residual activity [14] 88% | residual activity [15] 95% | residual activity [16] 94% | residual activity [17] 100% | residual activity [18] 85% | residual activity [19] 100% | residual activity [20] 91% | residual activity [21] 94% | residual activity [22] 85% | inhibition [23] 13.3% | residual activity [24] 94% | residual activity [25] 84% | residual activity [26] 100% | residual activity [27] 80% | residual activity [28] 86% | residual activity [29] 92% | inhibition [30] 7.11% | residual activity [31] 100% | residual activity [32] 94% | residual activity [33] 100% | residual activity [34] 79% | residual activity [35] 100% | residual activity [36] 86% | residual activity [37] 92% | residual activity [38] 100%

Cc1nccc(COC(=O)N2C[C@@H]3[C@@H](CNC(=O)c4ccc5[nH]nnc5c4)[C@@H]3C2)n1 [BI 3017]
inactive: residual activity [1] 85% | residual activity [2] 96% | residual activity [3] 93% | residual activity [4] 100% | inhibition [5] 30.2% | residual activity [6] 95% | residual activity [7] 82% | residual activity [8] 98% | residual activity [9] 84% | residual activity [10] 100% | residual activity [11] 100% | residual activity [12] 86% | residual activity [13] 87% | residual activity [14] 83% | residual activity [15] 100% | residual activity [16] 97% | residual activity [17] 99% | residual activity [18] 100% | residual activity [19] 100% | residual activity [20] 100% | residual activity [21] 66% | residual activity [22] 71% | inhibition [23] 12.4% | residual activity [24] 97% | residual activity [25] 81% | residual activity [26] 100% | residual activity [27] 100% | residual activity [28] 80% | residual activity [29] 89% | inhibition [30] -5.6% | residual activity [31] 92% | residual activity [32] 87% | residual activity [33] 85% | residual activity [34] 92% | residual activity [35] 95% | residual activity [36] 100% | residual activity [37] 69% | residual activity [38] 100%
